Values quoted from earlier work in patent US10576045B2 (priority 2012, dated 2020).

Columns and labels:
[1] = 60 mg/day
anticholinergic binding = settings: different animal models
[2] = reboxetine 4 mg/day coadministered with olanzapine
[3] = obese patients with BED; 8 mg/day of reboxetine for 12 days

SMILES	difference between treatment and placebo groups ([1]; end of the study, week 52)	weight loss compared to placebo ([1]; following 28 weeks of treatment)	monoamine oxidase (MAO) inhibitory activity (monoamine oxidase (MAO))	serotonin reuptake inhibitory activity (serotonin reuptake)	anticholinergic binding activity (anticholinergic binding)	weight-gain associated with olanzapine administration [2]	binge eating behavior [3]	dopamine reuptake inhibitory activity (dopamine reuptake)
CNCCC(Oc1ccc(C(F)(F)F)cc1)c1ccccc1 (racemic) [fluoxetine, (+−)-N-methyl-3-(p-trifluoromethylphenoxy)-3-phenylpropyl-amine]	no difference	statistically significant weight loss	–	–	–	–	–	–
CCOc1ccccc1O[C@H](c1ccccc1)[C@H]1CNCCO1 (relative stereo) [reboxetine, (R*,R*)-2-[(2-ethoxyphenoxy)-phenyl-methyl]morpholine]	–	–	substantially devoid	only marginal	no anticholinergic binding activity	reduced the weight-gain	reduced binge eating behavior	no
